Assay results taken from patent US8420130B1, “Pharmaceutical formulation of a didemnin compound” (Pharma Mar S.A., priority 1998, dated 2013).

Assay: Solubility testing of aplidine
Assay type: physicochemical
Settings: water
Description: The antitumour agent aplidine (dehydrodidemnin B) is a natural occurring cyclic depsipeptide isolated from the Mediterranean runicate Aplidium albicans. Aplidine has been characterised by using several chromatographic and spectrometric techniques. […] Moreover, the long-term stability of aplidine in solution is currently unknown.

For dehydrodidemnin B [aplidine], the aqueous solubility was “poor aqueous solubility”.
